Data published in EP0287014A2, “Cholesteryl-phosphoryl choline for the reduction of the cholesterol level” (F. HOFFMANN-LA ROCHE AG, priority 1987, dated 1988).
Read-outs that look alike come from different tables or passages of the source.

How the values were obtained:
Totenkopfäffchen [1] = test: Inhibition of cholesterol absorption after oral [14C]-cholesterol test meal, faecal radioactivity over 2.5 days; format: in vivo; details: in percent of untreated control animals
Description: Einer Gruppe von 12 Totenkopfäffchen wurde ein Gemisch enthaltend Triolein, Stärke, Milchpulver, 1 mg [¹⁴C]-Cholesterin und 0.05 mg [³H]-Polyäthylenglycol und unmittelbar darauf eine Dispersion von CPC in 5% Gummi arabicum oral verabreicht. Hierauf wurde der Kot während 2,5 Tagen gesammelt. Die ausgeschiedene [¹⁴C]-Radioaktivität des Cholesterins wurde unter Berücksichtigung der [³H]-Radioaktivität des internen Standards Polyäthylenglycol ermittelt. Es wurde die Cholesterinabsorption (Differenz zwischen der verabreichten und der ausgeschiedenen [¹⁴C]-Radioaktivität des Cholesterins) berechnet und in der nachfolgenden Tabelle in Prozenten von unbehandelten Kontrolltieren angegeben.

Totenkopfäffchen [2] = test: Plasma cholesterol level during 14 days of feeding with coconut-oil diet; format: in vivo; details: for Senkung des Cholesterinspiegels in Prozenten der Kontrolltieren: versus placebo
Description: Totenkopfäffchen wurde pro Tier und Tag 239 mg Lactose als Placebo oder 239 mg CPC zusammen mit Kokonussöl enthaltendem Futter während 14 Tagen verabreicht. Jede 3 oder 4 Tage wurde den Tieren venöses Blut entnommen und der Cholesterinspiegel im Blutplasma ermittelt. In der nachstehenden Tabelle wird der Cholesterinspiegel in Prozenten der Vorperiode sowie die Senkung des Cholesterinspiegels in Prozenten der Kontrolltieren angegeben.

Acute toxicity (LD50) = details: mouse, in vivo, Maus, read-out: LD₅₀
Description: Was die Toxizität anbelangt, beträgt die LD₅₀ von CPC 125 mg/kg i.v. und 4000 mg/kg p.o. an der Maus.

With `CC(C)CCC[C@@H](C)[C@H]1CC[C@H]2[C@@H]3CC=C4C[C@@H](OP(=O)([O-])OCC[N+](C)(C)C)CC[C@]4(C)[C@H]3CC[C@]12C` [CPC, Cholesteryl-phosphorylcholin] the “Cholesterinabsorption (%)” value (Totenkopfäffchen [1]; Dosis 30 µMol/kg oral) was 90 ± 17%, the “Cholesterinabsorption (%)” value (Totenkopfäffchen [1]; Dosis 100 µMol/kg oral) was 60 ± 10% and the “Cholesterinabsorption (%)” value (Totenkopfäffchen [1]; Dosis 300 µMol/kg oral) was 12 ± 6%. The “Cholesterinspiegel im Blutplasma in Prozenten der Vorperiode” value (from here on “Cholesterinspiegel im Blutplasma”) (Totenkopfäffchen [2]; Tag 1, vor der Behandlung, 239 mg CPC per animal and day) was 100±8%, the “Senkung des Cholesterinspiegels in Prozenten der Kontrolltieren” value (“Senkung des Cholesterinspiegels” for short) (Totenkopfäffchen [2]; Tag 1, vor der Behandlung) was 0% and the “Cholesterinspiegel im Blutplasma” value (Totenkopfäffchen [2]; Tag 4, während der Behandlung, 239 mg CPC per animal and day) was 88±6%. For the same molecule, the “Senkung des Cholesterinspiegels” value (Totenkopfäffchen [2]; Tag 4, während der Behandlung) was 9%, the “Cholesterinspiegel im Blutplasma” value (Totenkopfäffchen [2]; Tag 7, während der Behandlung, 239 mg CPC per animal and day) was 84±4% and the “Senkung des Cholesterinspiegels” value (Totenkopfäffchen [2]; Tag 7, während der Behandlung) was 20%. The “Cholesterinspiegel im Blutplasma” value (Totenkopfäffchen [2]; Tag 11, während der Behandlung, 239 mg CPC per animal and day) was 93±13%, the “Senkung des Cholesterinspiegels” value (Totenkopfäffchen [2]; Tag 11, während der Behandlung) was 13% and the “Cholesterinspiegel im Blutplasma” value (Totenkopfäffchen [2]; Tag 14, während der Behandlung, 239 mg CPC per animal and day) was 86±11%. For the same molecule, the “Senkung des Cholesterinspiegels” value (Totenkopfäffchen [2]; Tag 14, während der Behandlung) was 18%, the “Cholesterinspiegel im Blutplasma” value (Totenkopfäffchen [2]; Tag 18, nach der Behandlung, 239 mg CPC per animal and day for 14 days) was 94±13% and the “Senkung des Cholesterinspiegels” value (Totenkopfäffchen [2]; Tag 18, nach der Behandlung) was 9%. The “Cholesterinspiegel im Blutplasma” value (Totenkopfäffchen [2]; Tag 21, nach der Behandlung, 239 mg CPC per animal and day for 14 days) was 97±11%, the “Senkung des Cholesterinspiegels” value (Totenkopfäffchen [2]; Tag 21, nach der Behandlung) was 10% and the “reversible Senkung des Plasmacholesterols” value (Totenkopfäffchen [2]; summary, versus placebo values and values of the pre-period) was 10 bis 20%. The LD50 (Acute toxicity (LD50); iv) was 125 mg/kg and the LD50 (Acute toxicity (LD50); po) was 4000 mg/kg.
